From ChEMBL document CHEMBL1137485, “Design, synthesis, and biological testing of pyrazoline derivatives of combretastatin-A4” (Bioorg Med Chem Lett, 2007)

Columns and labels:
[1] = tested on: L1210; assay: Cytotoxicity against mouse L1210 cells after 72 hrs by MTT assay; assay type: functional, cell-based; conditions: L1210, 72 h
[2] = tested on: B16; assay: Cytotoxicity against mouse B16 cells after 72 hrs by MTT assay; assay type: functional, cell-based; conditions: B16, 72 h
[3] = tested on: A10; assay: Reduction of microtubules in […] A10 cells; assay type: functional, cell-based; conditions: Rattus norvegicus
[4] = tested on: A10; assay: Reduction of microtubules in human A10 cells at 40 uM; assay type: functional; design: scale not given: the % may be the effect or the level left

EC50 [3]	Compound	IC50 [1]	IC50 [2]	Activity [4]
	COc1ccc(C2CC(c3cc(OC)c(OC)c(OC)c3)=NN2)cc1OC (stereo not drawn)	42 µM	44 µM	
7.1 µM	COc1ccc(C2CC(c3cc(OC)c(OC)c(OC)c3)=NN2)cc1O (stereo not drawn)	0.5 µM	2.1 µM	
	COc1cccc(C2CC(c3cc(OC)c(OC)c(OC)c3)=NN2C(C)=O)c1 (stereo not drawn)	44 µM	> 100 µM	
	COc1cc(OC)c(C2CC(c3cc(OC)ccc3OC)=NN2C(C)=O)c(OC)c1 (stereo not drawn)	33 µM	69 µM	
	COc1cc(C2=NNC(c3cc(OC)c(OC)c(OC)c3)C2)cc(OC)c1OC (stereo not drawn)	24 µM	56 µM	
	COc1ccc(OC)c(C2=NN(C(C)=O)C(c3ccc(OC)c([N+](=O)[O-])c3)C2)c1 (stereo not drawn)	40 µM	58 µM	
	COc1cc(C2=NN(C(C)=O)C(c3ccc(Cl)cc3)C2)cc(OC)c1OC (stereo not drawn)	30 µM	35 µM	
	COc1ccc(OC)c(C2=NN(C(C)=O)C(c3ccc(OC)c(OC)c3)C2)c1 (stereo not drawn)	28 µM	62 µM	
	COc1ccc(C2CC(c3cc(OC)c(OC)c(OC)c3)=NN2C(C)=O)cc1[N+](=O)[O-] (stereo not drawn)	52 µM	> 100 µM	
	COc1ccc(OC)c(C2CC(c3cc(OC)c(OC)c(OC)c3)=NN2C(C)=O)c1 (stereo not drawn)	> 100 µM	> 100 µM	
	COc1ccc(C2CC(c3cc(OC)c(OC)c(OC)c3)=NN2C(C)=O)cc1O (stereo not drawn)	> 100 µM	> 100 µM	10%
	COc1ccccc1C1CC(c2cc(OC)c(OC)c(OC)c2)=NN1C(C)=O (stereo not drawn)	43 µM	> 100 µM	
	COc1cc(C2=NN(C(C)=O)C(c3ccc([N+](=O)[O-])cc3)C2)cc(OC)c1OC (stereo not drawn)	42 µM	51 µM	
